# In patent US20070134744A1, “Epothilone resistant cell lines” (priority 2000, published 2007):
# Entries after “also recorded” stand apart in the source; their conditions may differ.
# Legend:
# [1] = system: EA150 cells; experiment: MTS growth inhibition assay; type: cell-based; details: for IC50: MTS, 72 hours drug, Table 1
# Protocol: (§1) Growth inhibition may be analyzed using conventional methods, for example a MTS assay (PROMEGA, Wis.) may be used. In this assay approximately 4000 cells per well are seeded in 96 well plates in MEM supplemented with 10% fetal calf serum and incubated at 37° C. in 5.0% CO2. After 24 hours, dilutions of drug (concentration range used is between 1 nM and 1000 nM) are added and cells are allowed to incubate with drug for an additional 72 hours. The MTS reagent mixed with PMS (MTS:PMS 20:1 according to manufacturer's instructions) is then added and absorbance quantitated using a Thermomax microplate reader system according to conventional methods (Molecular Devices, Sunnyvale, Calif.). […] Six assays per drug per plate are performed.
# (§2) Thus, at least two potential mechanisms of epothilone A resistance may exist—a lower resistance mechanism that is cross-resistant to TAXOL® and a higher, epothilone A specific resistance mechanism.
# [2] = system: EA10 cells; experiment: MTS growth inhibition assay; type: cell-based; details: MTS, 72 hours drug, Table 1
# Protocol: as §1, §2
# [3] = system: EA60 cells; experiment: MTS growth inhibition assay; type: cell-based; details: MTS, 72 hours drug, Table 1
# Protocol: as §1, §2
# [4] = system: EA20 cells; experiment: MTS growth inhibition assay; type: cell-based; details: MTS, 72 hours drug, Table 1
# Protocol: as §1, §2
# [5] = system: MDA-MB-435 cells; experiment: MTS growth inhibition assay; type: cell-based
# Protocol: as §1, §2
# [6] = system: KB-8511 cells; type: cell-based, human; details: for RF (resistance factor: IC50 resistant cell line / IC50 parental KB-31): KB-8511 (Colch selected), 72 hrs, average of three experiments; for resistance profile in words: KB-8511 vs parental KB-31
# Protocol: (§3) Data in Table 4 are gathered according to the following methods: Cells (1×10^3) are seeded in 96-well plates and allowed to adhere for 24 hrs. Compounds are then added as two-fold serial dilutions and incubation continued for an additional 72 hrs. Cell numbers at the beginning and at the end of the experiment are estimated by methylene blue staining of cellular protein mass according to conventional methods. The net mass increase of vehicle-treated cells is set as 100% growth. The IC50 is determined as the drug concentration that leads to half-maximal growth inhibition compared to the control. The resistance factor (RF) for a particular drug is calculated by dividing the IC50 determined on the resistant cell line by that determined on the parental KB-31 cells. Data are presented as average±standard deviation (SD) of three separate experiments, except na=not applicable (n<3). Colchicine-selected KB-8511 cells overexpressing P-glycoprotein served as a reference for the classical multi-drug-resistant phenotype.
# [7] = system: 298/D4/40 cells; type: cell-based, human; details: for RF (resistance factor: IC50 resistant cell line / IC50 parental KB-31): 298/D4/40 (EpoA selected), 72 hrs, in the presence of 40 nM epothilone A; for resistance profile in words: 298/D4/40 vs parental KB-31
# Protocol: (§4) Anti-proliferative assays are performed basically as described (Meyer et al., Int. J. Cancer 43:851 (1989)). Briefly, cells are seeded at 1.5×10^3 cells/well into 96-well microtiter plates and allowed to adhere by incubation overnight. Compounds are added in serial dilutions on day 1. The plates are then incubated for an additional 3 days, after which the cells are fixed with 3.3% v/v glutaraldehyde, washed with water and stained with 0.05% w/v methylene blue according to conventional methods. After washing, the dye is eluted with 3% HCl and the optical density measured at 665 nm with a SpectraMax Plus (Molecular Devices, Sunnyvale, Calif.) according to manufacturers instructions. IC50 values are determined by mathematical curve-fitting using the SoftPro2.6.1 program (Molecular Devices, Sunnyvale, Calif.) using the formula (OD treated−OD start)/(OD control−OD start)×100. […] IC50 determinations with the cell line 298/D4/40 are performed in the presence of 40 nM epothilone A.
# as §3
# [8] = system: 315/sc5.9 cells; type: cell-based, human; details: for RF (resistance factor: IC50 resistant cell line / IC50 parental KB-31): 315/sc5.9 (EpoB selected), 72 hrs, average of three experiments
# Protocol: as §4, §3
# [9] = system: 297/C5/0 cells; type: cell-based, human; details: for RF (resistance factor: IC50 resistant cell line / IC50 parental KB-31): 297/C5/0 (EpoA selected), 72 hrs, average of three experiments; for resistance profile in words: 297/C5/0 vs parental KB-31
# Protocol: as §4, §3
# [10] = system: 298/D4/40 cells; experiment: Support of growth of epothilone A-dependent cells; type: cell-based, human; details: replacing epothilone A
# Protocol: The epothilone resistant cell lines, EpoA320-80C, EpoA320/ND, 298/D4/40, 297/C5/0 and 315/sc5.9 are generated as disclosed above. […] A subclone, 298/D4/40, is adapted to grow in the presence of 40 nM epothilone A administered twice weekly (i.e. at every medium change). […] Furthermore, when 298/D4/40 cells are deprived of epothilone A, they growth arrest in the G2/M phase of the cell cycle and eventually die by apoptosis. […] Thus, this cell line could be employed in a drug screen, in which compounds with a potential microtubule-stabilizing mechanism could be identified by virtue of supporting the growth of epothilone A-deprived 298/D4/40 cells (see below). Nevertheless, upon prolonged incubation in the absence of epothilone A, we are able to isolate a subline that is still partially resistant to epothilone A, but has lost the drug-dependent phenotype of 298/D4/40, likely due to a cornpensating mutation. A subclone of this cell line, 297/C5/0, is used for further analyses.
# Potential hits would be those that support the growth of 298/D4/40 cells similar to epothilone A (or paclitaxel) that could be included as a positive control in this assay.
# [11] = system: EA40 cells; experiment: MTS growth inhibition assay; type: cell-based; details: for IC50: EA40 cells
# Protocol: as §1, with “performed. […]” for “performed.”
# (§5) As such, epothilone resistant cells would have some degree of cross-resistance to other P-gp substrates that could be reversed by P-gp inhibitors. To investigate this possibility, the cytotoxicity of the P-gp substrates, vincristine, doxorubicine and vinblastine is determined against epothilone A resistant cells using the MTS assay. […] When EA20 and resistant MDA/T0.3 cells are incubated with TAXOL® or epothilone A in the presence of [3′-Desoxy-3′-oxo-MeBmt]^1-[Val]^2-Ciclosporin (PSC-833; a P-gp inhibitor which is disclosed in U.S. Pat. No. 5,525,590), the resistance of MDA/T0.3 cells to TAXOL® is reversed but no effect on the resistance of EA20 to epothilone A is observed.
# [12] = system: MDA/T0.3 cells; experiment: Reversal of resistance by P-gp inhibitor (MTS assay); type: cell-based; details: MDA/T0.3 cells incubated with TAXOL in the presence of PSC-833
# Protocol: as §1
# (§6) As such, epothilone resistant cells would have some degree of cross-resistance to other P-gp substrates that could be reversed by P-gp inhibitors. To investigate this possibility, the cytotoxicity of the P-gp substrates, vincristine, doxorubicine and vinblastine is determined against epothilone A resistant cells using the MTS assay. […]
# [13] = system: EA20 cells; experiment: as above; type: cell-based; details: EA20 cells incubated with epothilone A in the presence of PSC-833
# Protocol: as §1, §6
# [14] = system: MDA/T0.3 cells; experiment: MTS growth inhibition assay; type: cell-based; details: MDA/T0.3 cells, P-gp substrates; Table 2; read-out: IC50
# Protocol: as §1, with “After 24 hours, dilutions of drug (concentration range used is between 1 nM and 1000 nM) are added and cells are allowed to incubate with drug for an additional 72 hours.” left out
# as §5
# MDA/T0.3 is a clonal subline of MDA-MB-435 cells selected by increasing exposure of MDA-MB-435 cells to TAXOL®. MDA/T0.3 cells express high levels of P-glycoprotein and are resistant to a variety of chemically and functionally unrelated compounds. MDA/T0.3 cells could be sensitized to a variety of cytotoxic agents by treatment with the P-glycoprotein reversing agent PSC-833.
# [15] = system: KB-8511 cells; details: cited from earlier work
Compound,IC50 [1],IC50 [2],IC50 [3],IC50 [4],RF (resistance factor: IC50 resistant cell line / IC50 parental KB-31) [6],resistance profile in words [6],RF (resistance factor: IC50 resistant cell line / IC50 parental KB-31) [7],resistance profile in words [7],RF (resistance factor: IC50 resistant cell line / IC50 parental KB-31) [8],RF (resistance factor: IC50 resistant cell line / IC50 parental KB-31) [9],resistance profile in words [9],support of growth of epothilone A-dependent cell line [10],"IC50 ([11]; MTS, 72 hours drug, Table 1)",also measured
"C/C(=C\c1csc(C)n1)[C@@H]1C[C@@H]2O[C@]2(C)CCC[C@H](C)[C@H](O)[C@@H](C)C(=O)C(C)(C)[C@@H](O)CC(=O)O1 [Epothilone B, epothilone B]",15 ± 3.1 nM,3 ± 1.4 nM,10 ± 4.2 nM,6 ± 2.9 nM,0.9,retain full activity,9.2,either partially or fully cross-resistant,3.1,7.7,either partially or fully cross-resistant,able to substitute for epothilone A,8 ± 3.5 nM,"resistance profile in words [1]: very little resistance; IC50 ([5]; MTS, 72 hours drug, Table 1): 2 ± 0.8 nM; resistance ([8]; 315/sc5.9 vs parental KB-31): 3.1 fold"
"C/C=C/C[C@@H](C)C(=O)[C@H]1C(=O)N[C@@H](C(C)C)C(=O)N(C)CC(=O)N(C)[C@@H](CC(C)C)C(=O)N[C@@H](C(C)C)C(=O)N(C)[C@@H](CC(C)C)C(=O)N[C@@H](C)C(=O)N[C@H](C)C(=O)N(C)[C@@H](CC(C)C)C(=O)N(C)[C@@H](CC(C)C)C(=O)N(C)[C@@H](C(C)C)C(=O)N1C [PSC-833, [3′-Desoxy-3′-oxo-MeBmt]^1-[Val]^2-Ciclosporin]",,,,,,,,,,,,,,effect on resistance to TAXOL [12]: reversed; effect on resistance to epothilone A [13]: no effect
"CC(=O)O[C@H]1C(=O)[C@@]2(C)[C@H]([C@H](OC(=O)c3ccccc3)[C@]3(O)C[C@H](OC(=O)[C@H](O)[C@@H](NC(=O)c4ccccc4)c4ccccc4)C(C)=C1C3(C)C)[C@]1(OC(C)=O)CO[C@@H]1C[C@@H]2O [Paclitaxel, paclitaxel]",34 ± 2.6 nM,13 ± 3.1 nM,27 ± 3.1 nM,22 ± 4 nM,209.6,resistant,200.1,either partially or fully cross-resistant; also recorded: full cross-resistance,1.4,98.3,either partially or fully cross-resistant; also recorded: full cross-resistance,able to substitute for epothilone A,23 ± 4 nM,"IC50 ([5]; Homo sapiens, MTS, 72 hours drug, Table 1): 7.5 ± 3 nM; IC50 ([5]; Homo sapiens, P-gp substrates, Table 2): 7.5 ± 3 nM; resistance profile in words ([8]; 315/sc5.9 vs parental KB-31): marginal cross-resistance; IC50 [14]: 540 ± 100 nM; IC50 ([11]; P-gp substrates, Table 2): 21 ± 3 nM; resistance profile in words ([11]; EA40 vs MDA-MB-435 / EA150): equally resistant"
COc1cc2c(c(OC)c1OC)-c1ccc(OC)c(=O)cc1[C@@H](NC(C)=O)CC2 [colchicine],,,,,,,,,,,,,,relative resistance compared to KB-31 cells [15]: ~40 fold
